Patent US5457092A, “Methods of promoting bone growth in mammals comprising administration of modified parathyroid hormone” (Gesellschaft fur Biotechnologische Forschung mbH (GBF), priority 1987, dated 1995)

Legend:
[1] = test system: chondrocytes from sterna of 16-day-old embryonic chicks; assay: Stimulation of DNA synthesis in chondrocytes by PTH fragments (Table 1); format: cell-based, chick; conditions: for [^3 H]thymidine incorporation: 4 h, control 139 ± 6; for E/C: stimulated / non-induced control cells
Protocol: Chondrocytes were isolated from sterna of 16-day-old embryonic chicks according to J. Biol. Chem., 261 (1986) 7997-8001 (10; Yasui et al.) with some modifications. Collagenase was dissolved in Hanks' balanced salt solution (0.4 mM Na2 HPO4, 140 mN NaCl, 5.3 mM KCl, 0.4 mM MgSO4, 1.3 mM CaCl2, 0.4 mM KH2 PO4, 0.5 mM MglC2, 5 mM glucose, 0.05% gentamicin) at a concentration of 286 units/ml. Sterna were treated repeatedly for 30 min with collagenase solution at 37° C. Cells first released by this procedure were discarded because of their very poor responsiveness towards PTH. The collagenase treatment was subsequently repeated leading to a highly homogenous cell population of chondrocytes. The cells obtained by a second collagenase treatment were collected by centrifugation (1000 rpm, 10 min), washed twice with medium (Dulbecco's modified Eagle's medium, GIBCO, supplemented with NaHCO3 (45 mM), glutamine (2 mM), penicillin G/streptomycin (65 mg/1 and 100 mg/l, respectively), Hepes (10 mM, pH 7.2), and FCS (10% v/v) and counted.
The DNA synthesis rate was assayed in monolayer culture by the incorporation of ]^3 H]thymidine into perchloric acid-precipitable material. […] After 17 h, the medium was replaced by 200 μl of serum-free medium. After 4 days, chondrocytes were incubated for 4 h with the appropriate effector and 1μ Ci of [^3 H]thymidine. Subsequently, medium was removed and the cells were washed twice with 200 μl of phosphate-buffered saline (PBS: 137 mM NaCl, 2.7 mN KCl, 1.5 mM KH2 PO4, 0.8 mN Na2 HPO4, pH 7.0). Then cells were lysed by 100 μl of 2% (v/v) Nonidet P- 40 and 2% (w/v) sodium dodecyl sulfate treatment and the perchloric acid-insoluble material was precipitated by adding an equal volume of ice-cold 2% (w/v) perchloric acid in the presence of 1% herring sperm DNA as carrier. After storage for 10 min at -20° C., the precipitated material of each well was transferred to glass fiber filters with a Scatron--As semiautomatic cell harvester. Filters were dried at 80° C. for 20 min, transferred into scintillation vials, and 2 ml of scintillation mixture (scintillator 299; United Technology Pachard) were added. Radioactivity of the samples was determined with a β counter (Minimax; United Technology Pachard). Each test consisted of 5 up to 10 identically treated wells and was repeated at least twice with freshly prepared chondrocytes.
The incorporation of [^3 H]thymidine by non-induced control cells and by stimulated cells is shown by C and E, respectively. The results shown mean ±S.E. for n parallel cell cultures.

[2] = test system: osteoblast enriched rat embryo calvaria cell cultures; assay: CK specific activity in rat embryo calvaria cell cultures; format: cell-based; conditions: 100 nM; 24 h; control 457 ± 46 nmol/min per mg of protein
Protocol: (§1) FIG. 10 is a graphical representation showing the dose dependent stimulation by bPTH (1-84) of osteoblast enriched rat embryo calvaria cell cultures. Experimental details for the determination of cyclic AMP (.quadrature.) (15 min after stimulation) and incorporation of [^3 H]thymidine into DNA ( ) and CK ( ) specific activity (24 h after stimulation) are given below. The results are means ±S.E.M., N≥5. In several cases the S.E.M. was less than the size of the symbol. Control values were: cyclic AMP, 25±5 pmol/mg of protein; DNA, 240±30 c.p.m./μg of DNA; CK, 200±20 nmol/min per mg of protein. Statistical significance of differences between treated and corresponding control groups by Student's T test: *P<0.05; **P<0.01.
(§2) Rat calvaria cultures were treated with fragments of PTH derived from the central portion of the molecule.

[3] = test system: osteoblast enriched rat embryo calvaria cell cultures; assay: Cyclic AMP production in rat embryo calvaria cell cultures; format: cell-based; conditions: 100 nM; 15 min; control 29 ± 2.9 pmol/mg of protein
Protocol: as §1, §2

[4] = test system: osteoblast enriched rat embryo calvaria cell cultures; assay: DNA synthesis ([3H]thymidine incorporation) in rat embryo calvaria cell cultures; format: cell-based
Protocol: as §1

[5] = test system: ROS 17/2.8 osteoblast-like cells; assay: CK specific activity in ROS 17/2.8 osteoblast-like cells; format: cell-based, rat; conditions: 400 nM; control 698 ± 70 nmol/min per mg of protein
[6] = test system: ROS 17/2.8 osteoblast-like cells; assay: Cyclic AMP production in ROS 17/2.8 osteoblast-like cells; format: cell-based, rat; conditions: 400 nM; control 29 ± 5.2 pmol/mg of protein
Protocol: When cultures of the widely used model for osteoblasts, the osteoblast-likeclone of rat osteosarcoma, ROS 17/2.8 (Endocrinology (Baltimore), 107 (1980) 1494-1503=12; Majeska et al.), were incubated with full-length PTH and PTH fragments (Table 4), cyclic AMP production was stimulated only by bPTH(1-84) and hPTH(1-34), whereas hPTH(25-39), hPTH(27-48), hPTH(28-48) and hPTH(34-47) were ineffective.

[7] = test system: ROS 17/2.8 osteoblast-like cells; assay: DNA synthesis in ROS 17/2.8 osteoblast-like cells; format: cell-based, rat; conditions: 400 nM; control 392 ± 58 c.p.m./μg of DNA

## hPTH(28-47): PTH fragment 28-47, human source (LQDVHNFVALGAPLAPRDAG; Parathyroid hormone; UniProt P01270 59-78, looked up, fragment)
[1]; 4.5 × 10^-5 mol/l
  [^3 H]thymidine incorporation: 276 ± 36 cpm
  E/C: 1.99
[1]; 4.5 × 10^-6 mol/l
  [^3 H]thymidine incorporation: 202 ± 17 cpm
  E/C: 1.45
[1]; 4.5 × 10^-7 mol/l
  [^3 H]thymidine incorporation: 205 ± 22 cpm
  E/C: 1.47
[1]; 4.5 × 10^-8 mol/l
  [^3 H]thymidine incorporation: 196 ± 25 cpm
  E/C: 1.41
[2]
  CK specific activity, effect of fragment (experimental value/control value): 2.18 ± 0.12
[3]
  Cyclic AMP concentration, effect of fragment (experimental value/control value): 0.52 ± 0.39
[4]
  stimulation of DNA synthesis (in words): less
[4]; 100 nM, 24 h, control 624 ± 73 c.p.m./μg of DNA
  [3H)Thymidine incorporation, effect of fragment (experimental value/control value): 2.11 ± 0.09
[5]
  CK specific activity, effect of fragment (experimental value/control value): 1.66 ± 0.11
[6]
  Cyclic AMP, effect of fragment (experimental value/control value): 1.03 ± 0.16
[7]
  [^3 H]Thymidine incorporation, effect of fragment (experimental value/control value): 1.44 ± 0.11
